Where “and” joins values, the source holds several entries; their conditions need not be identical. Identical values can stand only once. Entries after “also recorded” stand apart in the source; their conditions may differ. Like-named read-outs stand apart in the source and are kept apart here.
What was measured:
CrPII = assay: ITC binding of small effector molecules to green algal CrPII; parameters: species or system Chlamydomonas reinhardtii
Protocol: (§1) To gain additional insights into the ligand binding properties of PpPII in comparison to cyanobacterial and chloroplastid PII proteins, isothermal titration calorimetry (ITC) experiments were performed using highly purified Strep-tagged or His-tagged recombinant PpPII, SyPII, CrPII, and PhyscoPII proteins (Supplementary Fig. S1) with different protein/ligand/ concentrations to determine the best fitting conditions of the binding model. The titration experiments were repeated with different protein preparations to confirm the reproducibility of the results. The raw isothermal data were fitted into one-binding site as well as three-sequential binding sites to define the best fitting model. Fitting using a one binding site model states an average Kd value for all available binding sites and the mean of the stoichiometry of bound ligands.
(§2) The ITC experiments were done using a VP-ITC microcalorimeter (MicroCal, LCC). All details for determination of binding constants for small effector molecules using ITC are fully described in the supplementary information. Heat isotherms of the dilution of the ligand in the cell buffer were collected in a blank run for each experiment in the absence of protein. The binding isotherms were calculated from received data and fitted to one-site and three-sequential binding sites models using the MicroCal ORIGIN software (Northampton) as described. All titrations were performed in duplicates with different purification batches of recombinant PII proteins. The association binding constant (Ka) was generated from the software by de-convolution and curve fitting. For calculation of dissociation constant (Kd), the Ka value was inversed.
(§3) Supplementary Information […]
(§4) Determination of Binding Constants for Small Effector Molecules using Isothermal […]
(§5) The binding of the small effector molecules to the recombinant PII proteins was tested using isothermal titration calarmity (ITC); VP-ITC microcalorimeter (MicroCal). All titrations were performed on 20°C using […] injection syringe with injection 6 µl or 10 µl of the tested ligands for 45 or 29 times, respectively into the cell (1.4 ml) with continuous stirring at 155 rpm. All tested ligands were high grade, prepared freshly in the same buffer of the protein and purchased from Sigma-Aldrich. Heat isotherms for the dilution of the ligand in the cell buffer were collected in a blank run in the absence of protein. The received calorimetric data were analyzed using MicroCal Origin software and fitted into one-site and three-sequential binding sites models, as indicated by the manufacture for calculation of binding isotherms9. For data reproducibility, the titrations were performed in duplicates with different purification batches of recombinant PII proteins. The association binding constant (Ka) was generated from the software by de-convolution and curve fitting. For calculation of dissociation constant (Kd), the Ka value was inversed. […]

PhyscoPII = assay: ITC binding of small effector molecules to plant-moss PhyscoPII; parameters: species or system Physcomitrella patens
Protocol: as §1, §2, §3, §4
(§6) The binding of the small effector molecules to the recombinant PII proteins was tested using isothermal titration calarmity (ITC); VP-ITC microcalorimeter (MicroCal). All titrations were performed on 20°C using […] injection syringe with injection 6 µl or 10 µl of the tested ligands for 45 or 29 times, respectively into the cell (1.4 ml) with continuous stirring at 155 rpm. All tested ligands were high grade, prepared freshly in the same buffer of the protein and purchased from Sigma-Aldrich. Heat isotherms for the dilution of the ligand in the cell buffer were collected in a blank run in the absence of protein. The received calorimetric data were analyzed using MicroCal Origin software and fitted into one-site and three-sequential binding sites models, as indicated by the manufacture for calculation of binding isotherms9. For data reproducibility, the titrations were performed in duplicates with different purification batches of recombinant PII proteins. The association binding constant (Ka) was generated from the software by de-convolution and curve fitting. For calculation of dissociation constant (Kd), the Ka value was inversed.
5 mM MgCl2, 0.5 mM EDTA, and 10% glycerol (pH 7.6). […]
For determination the binding isotherms of plant-moss PhyscoPII protein, a strep-tagged recombinant protein (5 or 6 µM trimeric concentration) was used in system composed of 20 mM

SyPII [1] = target: T1, SyPII (Synechococcus elongatus, UniProt P0A3F4); details: in presence ADP, given in parentheses for comparison; cited from earlier work
T1 construct: Strep-tag; made in house
T1 sequence (P0A3F4 whole entry): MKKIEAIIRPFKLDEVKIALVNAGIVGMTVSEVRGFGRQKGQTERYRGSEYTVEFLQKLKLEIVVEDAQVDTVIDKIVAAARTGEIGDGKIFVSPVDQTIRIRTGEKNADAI

PpPII = PpPII (Porphyra purpurea, UniProt P51254); assay: ITC binding of small effector molecules to red algal PpPII
Sequence of PpPII (P51254 whole entry): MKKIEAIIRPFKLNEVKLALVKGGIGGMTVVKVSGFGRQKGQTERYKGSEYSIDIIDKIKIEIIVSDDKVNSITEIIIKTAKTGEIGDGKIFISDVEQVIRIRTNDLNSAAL
Protocol: as §1, §2, §3, §4, §6
For determination the binding isotherms of red algal PpPII protein, a buffer system composed of […]
used. For determination ATP and ADP binding isotherms upon the binding to PpPII protein, His- […]
against 2 mM ATP or 2 mM ADP. For determination of ATP and ADP binding isotherms in […]
concentration) was titrated against 0.5 mM of ATP or 1 mM ADP, respectively. However, for […]
of 1 mM of ATP or 1 mM ADP. […]

SyPII [2] = target: T1, SyPII; assay: ITC binding of small effector molecules to cyanobacterial SyPII; parameters: species or system Synechococcus elongatus PCC 7942
Protocol: as §1, §2, §3, §4, §5
For determination the binding isotherms of cyanobacterial SyPII protein, a strep-tagged recombinant protein (20 µM trimeric concentration) was overexpressed and used as described previously9, 15, in a buffer composed of 10 mM Hepes-NaOH, 50 mM KCl, 50 mM NaCl, and 1

ScNAGK = target: T2, ScNAGK (Synechocystis sp., UniProt P73326); assay: Coupled NAGK activity assay, ScNAGK; assay type: biochemical, Synechocystis sp. PCC 6803
T2 sequence (P73326 1-297): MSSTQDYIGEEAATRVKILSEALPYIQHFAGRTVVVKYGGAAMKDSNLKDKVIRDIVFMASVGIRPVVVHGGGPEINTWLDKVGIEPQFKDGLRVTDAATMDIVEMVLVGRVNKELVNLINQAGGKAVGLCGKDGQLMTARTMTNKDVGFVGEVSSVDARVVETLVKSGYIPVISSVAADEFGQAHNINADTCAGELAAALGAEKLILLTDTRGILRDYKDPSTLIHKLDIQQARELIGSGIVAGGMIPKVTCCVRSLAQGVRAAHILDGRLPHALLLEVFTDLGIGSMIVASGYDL
Protocol: (§7) The assess the activity of ScNAGK was measured with an enzyme assay, in which the ADP production was coupled to the NADH oxidation by the auxiliary enzymes pyruvate kinase and lactate dehydrogenase according to previously described procedure[32],[50]. […] The oxidation reaction of NADH was recorded for 10 min using spectrophotometer (SPECORD 210 PLUS, Analytik Jena AG) at 340 nm. […] The NADH molar absorption coefficient is 6178 L mol^−1 cm^−1 for at 340 nm, which was used for calculation. […] From the velocity slopes, the enzymatic constants Km, Kcat and IC50 were calculated using the Graph-Pad Prism software (GraphPad Software, USA).

PpPII-ScNAGK complex = PpPII-ScNAGK complex (Porphyra purpurea, UniProt P51254); assay: Coupled NAGK activity assay, ScNAGK with PpPII; assay type: biochemical, Synechocystis sp. PCC 6803; Porphyra purpurea; details: ScNAGK in the presence of PpPII, fixed 10 mM ATP
Sequence of PpPII-ScNAGK complex (P51254 whole entry, one chain of several): as the sequence (P51254 whole entry) above
Protocol: as §7

PipX = assay: Pull-down analysis of PipX binding to PII proteins; parameters: species or system Synechocystis sp. PCC 6803; details: 10 µM proteins, 1 mM ADP, Strep-Tactin column, Tricine-SDS-PAGE
Source text: In cyanobacteria, PipX is the second known receptor of PII signaling. We questioned whether red algal PII proteins have lost or retained the ability to bind to PipX. To test this possibility, we first analyzed complex formation using pull-down experiments (Supplementary Fig. S3A and B). The PII protein from Synechocystis sp. PCC 6803 (ScPII) was mixed with PipX in the presence of ADP and then the Strep-tagged PII was immobilized on the Strep-Tactin II column (Supplementary Fig. S3A). After extensive washes, the proteins were eluted with desthiobiotin and analyzed by Tricine-SDS-PAGE. Both proteins were detected in the elution. Thus, confirming previous studies[16]–[18], cyanobacterial PII was bound to PipX. When PpPII in the presence of PipX was immobilized on the column, no PipX signal was detected in the elution (Supplementary Fig. S3B).
For complex formation, the binding reactions were done in 300 μl of buffer (100 mM Tris HCl, pH 8.0, 150 mM NaCl, 1 mM EDTA) by adding 10 µM of purified proteins: His6-ScPipX and Strep-tag ScPII or Strep-tag PpPII. […] The eluted fractions were analyzed by Tricine-SDS PAGE[51] and stained with SimplyBlue™ SafeStain (Invitrogen).
Figure S3. […] Complex formation between PipX and ScPII (A) or PpPII (B) was assessed by pull-down. […] (C) Complex formation between PipX and PII proteins was assessed by SPR. […]

[3] = titrant alone, read-out: Average Kd (one-site binding model)
[4] = titrant alone, read-out: Kd1 (three-sites binding model)
[5] = titrant alone, read-out: Kd2 (three-sites binding model)
[6] = titrant alone, read-out: Kd3 (three-sites binding model)

O=C(O)CCC(=O)C(=O)O [2-OG, 2-oxoglutarate]
Average Kd (one-site binding model) (CrPII; in presence ADP (2 mM)): never observed binding; also recorded: No binding
Kd1 (three-sites binding model) (CrPII; in presence ADP (2 mM)): No binding
Kd2 (three-sites binding model) (CrPII; in presence ADP (2 mM)): No binding
Kd3 (three-sites binding model) (CrPII; in presence ADP (2 mM)): No binding
Kd (CrPII; in presence ATP (2 mM), read-out: Average Kd (one-site binding model)): 15 ± 5.4 µM
Kd (CrPII; in presence ATP (2 mM), read-out: Kd1 (three-sites binding model)): 4.2 ± 0.7 µM
Kd (CrPII; in presence ATP (2 mM), read-out: Kd2 (three-sites binding model)): 21.3 ± 11 µM
Kd (CrPII; in presence ATP (2 mM), read-out: Kd3 (three-sites binding model)): 45.5 ± 19.8 µM
Average Kd (one-site binding model) (PhyscoPII; in presence ATP (1 mM)): unable to detect any binding; also recorded: No binding
Kd1 (three-sites binding model) (PhyscoPII; in presence ATP (1 mM)): No binding
Kd2 (three-sites binding model) (PhyscoPII; in presence ATP (1 mM)): No binding
Kd3 (three-sites binding model) (PhyscoPII; in presence ATP (1 mM)): No binding
N, number of calculated binding sites (one-site binding model) (SyPII [1]): (No binding)
N, number of calculated binding sites (one-site binding model) (PpPII; in presence ADP (1 mM)): No binding
N, number of calculated binding sites (one-site binding model) (PpPII; in presence ATP (1 mM)): 1.0
N, number of calculated binding sites (one-site binding model) (SyPII [2]; in presence ATP (2 mM)): 1.4

Nc1ncnc2c1ncn2[C@@H]1O[C@H](COP(=O)(O)OP(=O)(O)OP(=O)(O)O)[C@@H](O)[C@H]1O [ATP]
Kd (CrPII; in presence 2-OG (2 mM), read-out: Average Kd (one-site binding model)): 35.8 ± 1.6 µM
Kd (CrPII; in presence 2-OG (2 mM), read-out: Kd1 (three-sites binding model)): 5.8 ± 5.8 µM
Kd (CrPII; in presence 2-OG (2 mM), read-out: Kd2 (three-sites binding model)): 53.1 ± 58.3 µM
Kd (CrPII; in presence 2-OG (2 mM), read-out: Kd3 (three-sites binding model)): 61.6 ± 9.7 µM
Average Kd (one-site binding model) (CrPII; titrant alone): unable to notice any binding; also recorded: No binding
Kd1 (three-sites binding model) (CrPII; titrant alone): No binding
Kd2 (three-sites binding model) (CrPII; titrant alone): No binding
Kd3 (three-sites binding model) (CrPII; titrant alone): No binding
Kd (PhyscoPII; in presence 2-OG, read-out: Average Kd (one-site binding model)): 17.6 ± 7.5 µM
Kd (PhyscoPII; in presence 2-OG, read-out: Kd1 (three-sites binding model)): 8 ± 6 µM
Kd (PhyscoPII; in presence 2-OG, read-out: Kd2 (three-sites binding model)): 16.3 ± 11.4 µM
Kd (PhyscoPII; in presence 2-OG, read-out: Kd3 (three-sites binding model)): 129 ± 128 µM
Kd (PhyscoPII; [3]): 26.8 ± 10.5 µM
Kd (PhyscoPII; [4]): 5.7 ± 1.4 µM
Kd (PhyscoPII; [5]): 13.6 ± 7.2 µM
Kd (PhyscoPII; [6]): 48.2 ± 29.3 µM
Kd (PpPII; Average Kd (one-site binding model), in presence 2-OG (1 mM)): 0.2 ± 0.3 µM
Kd (PpPII; Average Kd (one-site binding model), titrant alone): ~22 µM and 22 µM
Kd (PpPII; Kd1 (three-sites binding model), in presence 2-OG (1 mM)): 1.4 ± 1.8 µM
Kd (PpPII; Kd1 (three-sites binding model), titrant alone): 0.5 ± 0.2 µM
Kd (PpPII; Kd2 (three-sites binding model), in presence 2-OG (1 mM)): 1 ± 0.9 µM
Kd (PpPII; Kd3 (three-sites binding model), in presence 2-OG (1 mM)): 83.9 ± 62.4 µM
Kd (PpPII; Kd3 (three-sites binding model), titrant alone): 142 ± 80.8 µM
N, number of calculated binding sites (one-site binding model) (PpPII; in presence 2-OG (1 mM)): 1.0
Kd (PpPII; read-out: Kd2 (three-sites binding model), titrant alone): 18.7 ± 9.2 µM
N, number of calculated binding sites (one-site binding model) (PpPII; titrant alone, per PII trimer): 2.5
N, number of calculated binding sites (one-site binding model) (SyPII [2]; in presence 2-OG (1 mM)): 1.8
Kd (SyPII [2]; in presence 2-OG (1 mM), read-out: Average Kd (one-site binding model)): 2.7 ± 0.1 µM
Kd (SyPII [2]; in presence 2-OG (1 mM), read-out: Kd1 (three-sites binding model)): 0.5 ± 0.5 µM
Kd (SyPII [2]; in presence 2-OG (1 mM), read-out: Kd2 (three-sites binding model)): 3 ± 1.7 µM
Kd (SyPII [2]; in presence 2-OG (1 mM), read-out: Kd3 (three-sites binding model)): 325 ± 171 µM
N, number of calculated binding sites (one-site binding model) (SyPII [2]; titrant alone): 3.2
Kd (SyPII [2]; [3]): 43.3 ± 37.7 µM
Kd (SyPII [2]; [4]): 7.5 ± 7.3 µM
Kd (SyPII [2]; [5]): 15.9 ± 12.2 µM
Kd (SyPII [2]; [6]): 85.4 ± 74.6 µM

CC(=O)N[C@@H](CCC(=O)O)C(=O)O [NAG, N-acetyl glutamate]
Kcat (ScNAGK; free ScNAGK, NAG variable substrate, fixed 10 mM ATP): 8.93 ± 1.40 s⁻¹
Km (ScNAGK; read-out: Km value for N-acetyl glutamate (NAG), free ScNAGK, fixed 10 mM ATP): 16.2 ± 2.14 mM
Kcat (PpPII-ScNAGK complex; NAG variable substrate): 10.02 ± 1.11 s⁻¹
Km (PpPII-ScNAGK complex; read-out: apparent Km for NAG): 4.25 ± 0.36 mM

N=C(N)NCCC[C@H](N)C(=O)O [arginine]
IC50 (ScNAGK; read-out: Feedback inhibition of ScNAGK, half maximal inhibitory concentration (IC50)): 6.2 µM

ScPII: PII protein from Synechocystis sp. PCC 6803, recombinant with C-terminal Strep-tag II
complex formation with PipX (pull-down) (PipX): bound to PipX

Source: paper PMC5768801, “The PII signaling protein from red algae represents an evolutionary link between cyanobacterial and Chloroplastida PII proteins” (Scientific Reports, 2018)
